# Source: patent US9572820B2, “Methods of treating autophagy-associated disorders and related pharmaceutical compositions, diagnostics, screening techniques and kits” (priority 2011, dated 2017)
# Experiments:
# caspase 1 p20 = test: Caspase-1 accumulation in BMM by Western blot; type: cell-based, murine; settings: Atg5fl/fl LysM-Cre− BMM, EBSS
# Procedure: (A) Confocal microcopy analysis of caspase-1 colocalization relative to LC3 in GFP-LC3 expressing BMM induced for autophagy by starvation (EBSS) in the presence of bafilomycin A1 for 90 minutes. Scale bar, 5 μM; Arrowheads and insets, LC3+ caspase-l+ positive profiles (colocalization). (B) Pearson's colocalization coefficient for caspase-1 vs. LC3 and IL-1α vs. LC3. (C) Caspase-1 accumulation in Atg5^fl/fl LysM-Cre− or Atg5^fl/fl LysM-Cre+ BMM induced for autophagy in EBSS with or without bafilomycin A1 (BafA1) and subjected to Western blot analysis. (D) IL-1α (culture supernatant ELISA) released from Atg5fl/fl LysM-Cre+ and Atg5fl/fl LysM-Cre− BMM incubated overnight with 100 ng/ml LPS and exposed for 1 h to inflammasome agonist silica (250 μg/ml) in EBSS. Data, means±SE, n≧3; **p<0.01 (t test).
# Cells were washed with PBS and lysed with RIPA buffer containing protease inhibitor cocktail (Roche). Cells extracts were analyzed by standard immunoblotting techniques with antibodies to ASC (Enzo Life Science, AL177), procaspase-1 and active caspase-1 (P20) (Cell Signaling, 2225), GFP (Abeam), calpain I (Cell Signaling), p62 (Abeam) and actin (Sigma). Proteins were resolved on a 12% SDS-polyacrylamide gels and transferred to nitrocellulose membranes. The membrane was blocked for 1 h in 5% nonfat dried milk in PBS/Tween 20 (0.1%) and probed with primary antibody overnight at 4° C. […]
# pro-IL-1β = test: Expression of pro-IL-1β in BMMs; type: cell-based, murine; settings: cells treated with bafilomycin A1 or CA-074 Me
# Procedure: To induce pro-IL-1β expression, cells were pretreated overnight with 100 ng/ml LPS (Sigma). Inflammasome was induced with […] nigericin (Sigma) for 1 h or with […] Alum (Thermoscientific) for 1 h or with […] silica crystals (MIN-U-SIL-15, US Silica) for 1 h or with […] Amyloid-b peptide (Ab; American Peptide Company) fibrils prepared as described (Moore et al, 2002). […] Starvation and other treatments (except for macrophage priming with LPS done in advance) were carried out concurrently (i.e., initiated at the same time).
# For all conditions, cell-free supernatants were assayed by immunoblotting after TCA precipitation for mouse IL-1β p17 (R&D), caspase-1 p10 (Santa Cruz Biotechnology), HMGB1 (Abcam) and Cathepsin B (R&D) or by ELISA for mouse IL-1β (R&D), IL-18 (MBL), and HMGB1 (IBL). Immunofluorescence confocal microscopy was carried out using a Zeiss LSM 510 Meta microscope (laser wavelengths 488, 543, and 633 nm). Antibodies against endogenous proteins IL-1β (Abcam), Sec6 (Shu C Hsu, Rutgers University, NJ, USA), Cathepsin B (R&D), Rab8a (Abcam), GORASP1 (Novus), GORASP2 (ProteinTech Group), GM130 (BD), LC3 (MBL) and GFP (Abcam; for BMMs from GFP-LC3 knock-in transgenic mice) were used for indirect immunofluorescence analysis. […]
compound,measurement,setting,value
CO/C1=C\C(C)=C\[C@@H](C)[C@@H](O)[C@@H](C)C/C(C)=C/C=C/[C@H](OC)[C@@H]([C@@H](C)[C@@H](O)[C@H](C)[C@@]2(O)C[C@@H](O)[C@H](C)[C@@H](C(C)C)O2)OC1=O [bafilomycin A1],levels of caspase 1 p20,caspase 1 p20,abnormally higher levels
same,expression of pro-IL-1β,pro-IL-1β,No differences
